# Test results: patent EP4570803A1, “SALT FORM AND CRYSTAL FORM OF 5,6-DIHYDROTHIENO[3,4-H]QUINAZOLINE COMPOUND AND PREPARATION METHOD THEREFOR” (NovaOnco JS Therapeutics Co., Ltd., priority 2022, dated 2024)
# Assays:
# [1] = Hygroscopicity study by Dynamic Vapor Sorption (DVS); assay type: physicochemical; conditions: for Hygroscopicity classification: 25°C and 80% RH; for ΔW: weight gain at 25°C, humidity 80 % RH
# Procedure: • Instrument model: SMS DVS Intrinsic Dynamic Vapor Sorption Instrument • Test conditions: Take a sample (10 ~ 30 mg) and place it in the DVS sample pan for testing.
# Hygroscopicity classification
# 10-30 mg of the crystalline form A of the compound of formula (I) was placed in a DVS sample tray for testing.
# 10-30 mg of the crystalline form B of the compound of formula (II) was placed in a DVS sample tray for testing.
# 10-30 mg of the crystalline form C of the compound of formula (III) was placed in a DVS sample tray for testing.
# [2] = Solid stability test at high temperature and high humidity (XRPD); assay type: physicochemical
# Procedure: According to the "Guidelines for Stability Testing of APIs and Preparations" (Chinese Pharmacopoeia 2020 Edition, Part IV, General Rules 9001), the stabiilty of the crystalline form A of compound of formula (I) and the crystalline form B of compound of formula (II) was investigated at high temperature and high humidity (40°C/75%RH, open) (60°C/75%RH, open) conditions.
# Weigh 10-30 mg of the crystalline form A of the formula (I) and the crystalline form B of the compound of formula (II), place them at the bottom of a glass sample bottle, and spread them into a thin layer. The samples were placed open to ensure that the samples were fully in contact with the ambient air. The samples placed under different conditions were sampled and tested (XRPD) on the 10th day, 30th day, and 60th day, and the test results were compared with the initial test results on day 0. Stability test results of the crystalline form of compound A of formula (I) and the crystalline form B of compound of formula (II)
# [3] = Pharmacokinetic study of oral administration in male beagle dogs; assay type: in vivo
# Procedure: Oral administration group: Weigh an appropriate amount of the test compound (calculated in free form), dissolve it in a 0.5% MC aqueous solution, vortex and sonicate for 10 min until the compound was milky white and uniformly suspended, and prepare a 1.0 mg/mL uniform suspension solution for use. Male beagle dogs weighing about 11 kg were selected and orally administered with the test compound. Sample collection time was: 0.083, 0.25, 0.5, 1, 2, 4, 6, 8, and 24 hours.
# 1 mL of whole blood was collected from the forelimb vein to prepare plasma for concentration determination by high performance liquid chromatography - tandem mass spectrometry (LC-MS/MS). The non-compartmental model of WinNonlin 8.2.0 (Pharsight, Mountain View, CA), pharmacokinetic software, was used to process plasma concentrations, and the linear logarithmic trapezoidal method was used to calculate pharmacokinetic parameters. Pharmacokinetic study results of crystalline form A, crystalline form B and crystalline form C
# [4] = Crystalline form screening: suspension crystallization; assay type: physicochemical; conditions: for Result (crystal form): 50 °C, suspension
# Description: The operation process of suspension crystallization was to weigh a certain amount of the crystalline form A of the compound of formula (I), add a certain amount of solvent, maintain the system in a state of suspension and stir at a certain temperature, and filter out the solid for analysis after a period of time. Table 6. Suspension crystallization
# [5] = Crystalline form screening: cooling crystallization; assay type: physicochemical; conditions: 50-25 °C
# Description: The cooling crystallization operation process was to dissolve a certain amount of the crystalline form A of the compound of formula (I) in a certain amount of solvent at high temperature, stir at high temperature for a period of time, and then cool to a lower temperature at a certain cooling rate. If solid precipitates after cooling to a low temperature, filter it out for solid state analysis. Table 7. Cooling crystallization
# [6] = Crystalline form screening: anti-solvent crystallization; assay type: physicochemical; conditions: 25 - 5 °C
# Description: The operation process of anti-solvent crystallization was to dissolve a certain amount of the crystalline form A of the compound of formula (I) in a positive solvent to obtain a solution of the raw material drug, slowly add the raw material drug solution to the anti-solvent at a certain temperature, and filter out any solid precipitation for analysis. Table 8. Anti-solvent crystallization
# [7] = biological target: T1, human PLK1 protein kinase (Homo sapiens, UniProt P53350); assay: 33P isotope-labeled PLK1 kinase activity assay in vitro; assay type: biochemical
# T1 construct: purchased Reaction Biology Corp
# T1 sequence (P53350 whole entry): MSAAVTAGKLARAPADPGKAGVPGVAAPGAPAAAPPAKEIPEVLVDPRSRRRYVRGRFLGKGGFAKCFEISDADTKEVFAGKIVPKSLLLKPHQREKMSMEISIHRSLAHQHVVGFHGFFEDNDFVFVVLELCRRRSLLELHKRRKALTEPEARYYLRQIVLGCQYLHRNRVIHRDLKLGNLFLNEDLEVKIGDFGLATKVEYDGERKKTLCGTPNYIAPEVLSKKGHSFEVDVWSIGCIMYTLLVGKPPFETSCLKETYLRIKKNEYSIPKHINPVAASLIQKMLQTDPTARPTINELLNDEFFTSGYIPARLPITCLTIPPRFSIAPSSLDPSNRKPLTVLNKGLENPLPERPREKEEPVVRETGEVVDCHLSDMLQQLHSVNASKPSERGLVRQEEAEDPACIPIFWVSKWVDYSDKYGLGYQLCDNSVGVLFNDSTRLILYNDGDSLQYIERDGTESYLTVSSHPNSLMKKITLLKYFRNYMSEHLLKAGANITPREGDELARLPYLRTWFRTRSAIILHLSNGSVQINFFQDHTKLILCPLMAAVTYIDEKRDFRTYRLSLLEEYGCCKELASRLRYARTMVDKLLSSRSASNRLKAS
# Procedure: The IC50 value was determined using ^33P isotope-labeled kinase activity assay (Reaction Biology Corp) to evaluate the inhibitory ability of the test compounds on human PLK1 protein kinase.
# Buffer conditions: 20 mM HEPES (pH 7.5), 10 mM MgCl2, 1 mM EGTA, 0.01% Brij35, 0.02 mg/ml BSA, 0.1 mM Na3VO4, 2 mM DTT, 1% DMSO
# Test steps: Dissolve the test compound in DMSO at room temperature to prepare a 10 mM solution for use. Dissolve the substrate Casein in a freshly prepared buffer (final concentration 20 µM), add the tested PLK1 kinase (final concentration 12 nM) and mix well. Add the DMSO-dissolved test compound stock solution to the above mixed reaction solution using the acoustic pipetting system Echo 550 according to the set final concentration gradient (highest final concentration was 1 µM, 3-fold dilution, 10 gradients). After incubation at room temperature for 20 minutes, add ^33 P-ATP (final concentration 0.01 µCi/µL), incubate at room temperature for 120 minutes, and then spot the reaction solution on P81 ion exchange filter paper (Whatman # 3698-915). After repeatedly washing the filter paper with 0.75% phosphoric acid solution, the level of residual radioactive phosphorylated substrate on the filter paper was determined. % kinase activity = kinase activity test compound/ kinase activity blank group (DMSO) × 100%. […]
# [8] = dog, plasma, po, 5 mg/kg, 5.0 mpk (calculated in free state), 0.5% MC aqueous suspension
# [9] = listed as crystalline form C of the compound of formula (III)
# [10] = dog, 5 mg/kg, PO, 5.0 mpk (calculated in free state), 0.5% MC aqueous suspension, plasma
smiles,measurement,setting,value
CSc1sc(C(N)=O)c2c1-c1nc(Nc3cc(N4CCN(C)CC4)ccc3OC(F)(F)F)ncc1CC2 [listing 1 of 3 here],Hygroscopicity classification,[1]; listed as crystalline form B of the compound of formula (II),hygroscopic
same,ΔW,[1]; listed as crystalline form B of compound (II),2.078%
same,Crystal form,"[2]; 40 °C /75%RH, open, 10 days, listed as Crystalline Form B of Compound of Formula (II)",crystal form B
same,Crystal form,"[2]; 60 °C /75%RH, open, 10 days, listed as Crystalline Form B of Compound of Formula (II)",crystal form B
same,Crystal form,"[2]; Initial sample, Day 0, listed as Crystalline Form B of Compound of Formula (II)",crystal form B
same,AUC(0-t) at 24 h,[3]; [8],1.11 µM·h
same,Cmax,[3]; [8],123 nM
same,Tmax,[3]; [8],4 h
same,half-life,[3]; [8],5 h
CSc1sc(C(N)=O)c2c1-c1nc(Nc3cc(N4CCN(C)CC4)ccc3OC(F)(F)F)ncc1CC2 [listing 2 of 3 here],Hygroscopicity classification,[1]; [9],hygroscopic
same,ΔW,[1]; [9],2.919%
same,AUC(0-t) at 24 h,[3]; [10],1.59 µM·h
same,Cmax,[3]; [10],132 nM
same,Tmax,[3]; [10],6 h
same,half-life,[3]; [10],4 h
CSc1sc(C(N)=O)c2c1-c1nc(Nc3cc(N4CCN(C)CC4)ccc3OC(F)(F)F)ncc1CC2 [listing 3 of 3 here],Result (crystal form),[4]; Condition 1: Acetonitrile 2.0 mL,crystal form A
same,Result (crystal form),[4]; Condition 2: Ethyl acetate 2.0 mL,crystal form A
same,Result (crystal form),[4]; Condition 3: Toluene 2.0 mL,crystal form A
same,Result (crystal form),[4]; Condition 4: Butanone 1.0 mL,crystal form A
same,stability in different solvents and at different temperatures,"[4]; conclusion over suspension, cooling and anti-solvent crystallization",good stability
same,Result (crystal form),[5]; Condition 1: Tetrahydrofuran 1.0 mL,crystal form A
same,Result (crystal form),[5]; Condition 2: 2- methyl - tetrahydrofuran 5.0 mL,crystal form A
same,Result (crystal form),"[6]; Condition 1: solvent THF, antisolvent H2O, 2.0+4.0 mL",crystal form A
same,Result (crystal form),"[6]; Condition 2: solvent THF, antisolvent IPA, 2.0+6 0. mL",crystal form A
same,Result (crystal form),"[6]; Condition 3: solvent THF, antisolvent Tol, 2.0+4.0 mL",crystal form A
same,Result (crystal form),"[6]; Condition 4: solvent DCM, antisolvent ACN, 4.0 mL",crystal form A
same,Result (crystal form),"[6]; Condition 5: solvent DCM, antisolvent MTBE, 4.0 mL",crystal form A
same,Result (crystal form),"[6]; Condition 6: solvent DMSO, antisolvent EtOAc, 0.6+8.0 mL",crystal form A
same,Hygroscopicity classification,[1],not hygroscopic
same,ΔW,[1],0.1671%
same,Crystal form,"[2]; 40 °C /75%RH, open, 10 days",crystal form A
same,Crystal form,"[2]; 40 °C /75%RH, open, 30 days",crystal form A
same,Crystal form,"[2]; 40 °C /75%RH, open, 60 days",crystal form A
same,Crystal form,"[2]; 60 °C /75%RH, open, 10 days",crystal form A
same,Crystal form,"[2]; 60 °C /75%RH, open, 30 days",crystal form A
same,Crystal form,"[2]; 60 °C /75%RH, open, 60 days",crystal form A
same,Crystal form,"[2]; Initial sample, Day 0",crystal form A
same,stability under high temperature and high humidity conditions,[2]; conclusion,good stability
same,absorption after oral administration,[3]; conclusion,well absorbed
same,AUC(0-t),[3]; [10],0.907 µM·h
same,Cmax,[3]; [10],106 nM
same,Tmax,[3]; [10],3 h
same,half-life,[3]; [10],4.6 h
same,inhibitory activity against PLK1,[7]; conclusion,good inhibitory activity
same,IC50,"[7]; substrate Casein 20 µM, PLK1 12 nM, 33P-ATP, 120 minutes at room temperature",2.48 nM
